Results on one molecule are retold here after PMC6934184, “Selective DNA-PKcs inhibition extends the therapeutic index of localized radiotherapy and chemotherapy” (The Journal of Clinical Investigation, 2019).

SMILES strings stand for the structures.

The target in this assay is T1, CDK2/cyclin A1 (Homo sapiens, UniProt P24941).
T1 construct: purchased Thermo Fisher Scientific (Life Technologies) SelectScreen
The experiment in a line: SelectScreen LanthaScreen. It is filed as binding. The conditions noted are these: 1 µM. A digest of the protocol:
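NU5455 was profiled across the SelectScreen Broad panel of kinase activity and binding assays. Z'LYTE reactions such as CSF1R ran at apparent Km ATP, while the Adapta CAMK1 assay used ATP listed as 10. Values are given as percent.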
Background: TR-FRET usually uses a lanthanide donor and a delayed reading to cut background.

Take `CN(C(=O)CN1CCOCC1)c1ccc2sc3c(-c4cccc5c(=O)cc(N6CC7CCC(C6)O7)oc45)cccc3c2c1` [NU5455]: the “% displacement” value is -1.6%.
